Results on two compounds are retold here after patent publication EP4817614A1, “COMPOSITION AND METHOD FOR TREATING AUTOIMMUNE DISEASES” (GNT Pharma Co., Ltd., priority 2023, dated 2025).

For assay [1], the system named is imiquimod (IMQ)-induced lupus model. The experiment in a line: imiquimod (IMQ)-induced lupus (SLE) mouse model. To be noted: for spleen index (organ weight/body weight x 100%): Fig. 1b; for follicle diameter / number of splenic follicles: H&E stained spleen sections, Fig. 2b-2c; for anti-dsDNA titers: SLE mouse serum, ELISA (IgG specific), Fig. 3. It counts as in vivo, Female BALB/C mice. On the procedure:
The goal of this Example was to investigate the effects of compound 2 in the imiquimod (IMQ)-induced lupus model, which is widely used as one of the induced SLE models.
Female BALB/C mice weighing 18-20 g were supplied by Saeron Bio Co., Ltd. (Korea) and acclimatized for 7 days. The animals were housed in separate cages with free access to laboratory feed and water. During the experiment, the animals were maintained at 23±3°C and 50±10% relative humidity with a 12-hour light-dark cycle. The animals were treated according to a protocol approved by the Animal Ethics Committee of GNT Pharmaceuticals. The mice were randomly divided into four groups: a normal group (n=6), a control SLE group (vehicle group, n=8), an IMQ+Compound 2 group (Compound 2 treatment group, n=4), and an IMQ+N-acetylcysteine group (NAC treatment group, n=8). All IMQ treatment groups were administered 5% imiquimod cream (Aldara Cream, Dong-A Pharmaceutical Co., Ltd.) topically to the right ear at a dose of 1.25 mg daily every other day for 4 weeks. Compound 2 (5 mg/kg, twice daily) was orally administered to the IMQ+Compound 2 group for 4 weeks, followed by concurrent IMQ treatment. N-acetyl Cysteine (150 mg/kg, once daily, adjusted to pH 7.5-8.0) was administered intraperitoneally to the IMQ+NAC group for 4 weeks along with IMQ treatment.
Mice were anesthetized with pentobarbital at the end of the experiment. Blood was collected through cardiac blood sampling. Within 30 minutes of collection, serum was separated from whole blood using EDTA by centrifugation at 12,000 g for 10 minutes. The extracted spleen was weighed, then the tissue was heated to 60°C, washed with xylene, and immersed in ethanol at gradient concentrations. The sections were H&E stained (BBC Biochemical, Washington State Mount Vernon) and then imaging was performed under a microscope. Observation was conducted through five fields of view at 10x magnification, and the number of spleen alba pulps (follicles) was counted. In addition, the diameter of the spleen alba pulp was observed using a micrometer. The diameter of the alba pulp was measured vertically and horizontally, and the average was calculated. Using a commercially available enzyme-linked immunosorbent assay (ELISA) kit (LBIS Mouse anti-dsDNA ELISA, Fujifilm Wako Shibayagi Co., Ltd., Richmond, Virginia, USA) serum anti-dsDNA (IgG specific) concentration was analyzed.

Assay [2] has as its system mouse model of amyotrophic lateral sclerosis. To be noted: previous studies, ALS mouse model; cited from earlier work.
Another assay has as its system EAE mouse model. The experiment in a line: experimental autoimmune encephalomyelitis (EAE) mouse model. The assay is classed as in vivo, female C57BL/6 mice. The source says: Multiple sclerosis (MS) is a neurological autoimmune disease in which the body's immune system attacks the cells of myelin, the protective sheath surrounding the […] of the brain and spinal cord. Until now, EAE has been well known as a preclinical model associated with multiple sclerosis. Therefore, an EAE mouse model was used to confirm the effects of compound 2 on autoimmune diseases.
The EAE mouse model was induced in 6-week-old female C57BL/6 mice. Mice were divided into three groups: 6 mice were placed in the normal group, and 8 mice were placed in the control EAE group (vehicle group) and the EAE + Compound 2 group (Compound 2 treatment group), respectively. In the mice, 200 µg of oligodendrocyte glycoprotein peptide myelin oligodendrocyte glycoprotein 35-55 (MOG35-55, Prospecbio , Israel) emulsified in 400 µg of complete Freund's adjuvant (CFA, Sigma, USA) was inoculated. The emulsion was injected into both sides of each mouse. Subsequently, 200 ng of pertussis toxin (Sigma, USA) was injected intraperitoneally on days 0 and 2. Compound 2 was injected intraperitoneally at a dose of 3.3 mg/kg every 24 hours for 7 days starting on day 9. In the control EAE group, PBS was injected intraperitoneally. Clinical signs associated with EAE were monitored daily and rated on a scale of 0 to 5: Grade 0, no apparent clinical symptoms; Grade 0.5, partial tail paralysis; Grade 1, tail paralysis or waddling gait; Grade 1.5, partial tail paralysis and waddling gait; Grade 2, tail paralysis and waddling gait; Grade 2.5, partial quadriplegia; Grade 3, unilateral limb paralysis; Grade 3.5, unilateral paralysis and partial paralysis of the other limb; Grade 4, bilateral paralysis; Grade 4.5, coma; Grade 5, death.
On day 25 after EAE induction, mice were euthanized by exposure to CO2, and spleens were extracted. RNA expression in the spleen was analyzed using Applied Biosystems™QuantStudio 5 qPCR system (Thermofisher, USA) with AMPIGENE qPCR Green Mix Hyrox (Thermofisher, USA), including […] forward and reverse primers (Bionics Korea) and SYBR green dye (Enzo Life Sciences, Farmingdale , NY, USA). The expression levels of each gene were standardized to glyceraldehyde 3-phosphate dehydrogenase (GAPDH) and compared to the expression levels of the normal or control EAE groups. To evaluate the effect of compound 2 on Treg, mouse splenocyte preparations were stained with the Treg detection kit (CD4/CD25/FoxP3) (Miltenyi Biotech, Germany) according to the manufacturer's instructions, and the Treg population was evaluated using flow cytometry. The data was analyzed using FlowJo™ 10.8.1 software.

In assay [3] the target is T1, microsomal prostaglandin E synthase-1 (mPGES-1) (Homo sapiens, UniProt O14684).
T1 sequence (O14684 1-152): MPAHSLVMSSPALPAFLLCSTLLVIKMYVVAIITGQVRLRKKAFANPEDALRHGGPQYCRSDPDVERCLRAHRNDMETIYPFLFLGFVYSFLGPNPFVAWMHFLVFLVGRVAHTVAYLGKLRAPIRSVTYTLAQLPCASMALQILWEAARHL
The following applies: previous studies; cited from earlier work.

For assay [4], the system named is imiquimod (IMQ)-induced psoriasis model. The experiment in a line: imiquimod (IMQ)-induced psoriasis mouse model. It counts as in vivo, Male BALB/C mice. The source says:
The goal of this Example was to investigate the effect of compound 2 in the imiquimod (IMQ)-induced psoriasis model, which is widely used as one of the induced psoriasis models.
For the experiment, psoriasis was induced using imiquimod (IMQ). The IMQ-induced psoriasis mouse model is one of the most widely used models for studying psoriasis. IMQ is a Toll-like receptor-7/8 (TLR-7/8) agonist used to treat actinic keratosis and basal cell carcinoma. It is known that topical application of IMQ cream to the skin of mice recruits immune cells and activates macrophages, monocytes, and dendritic cells to secrete inflammatory cytokines. The IMQ-induced psoriasis mouse model is known to be very similar to human psoriasis in terms of skin erythema, keratinization, epidermal changes (acanthosis), and inflammatory infiltration consisting of T cells, neutrophils, and dendritic cells.
Male BALB/C mice weighing 20-22 g were supplied by Saeron Bio Co., Ltd. (Korea) and acclimatized for 7 days. The animals were housed in separate cages with free access to laboratory feed and water. During the experiment, the animals were maintained at 23±3°C and 50±10% relative humidity with a 12-hour light-dark cycle. The animals were treated according to a protocol approved by the Animal Ethics Committee of GNT Pharmaceuticals. The mice were randomly divided into three groups: a normal group (n=5), a control psoriasis group (Vehicle group, n=8), and an IMQ+Compound 2 group (compound 2 treatment group, n=9). All IMQ treatment groups were administered 5% imiquimod cream (Aldara Cream, Dong-A Pharmaceutical Co., Ltd.) topically to shaved backs at a dose of 62.5 mg per day for 6 days. Compound 2 (5 mg/kg, twice daily) was orally administered to the IMQ+Compound 2 group for 6 days, followed by IMQ treatment.
To evaluate the anti-psoriatic effects of compound 2, the severity of psoriasis was monitored using an IMQ-induced psoriasis mouse model. The Psoriasis Skin PASI score is used to assess the severity of skin lesions in mice.
After confirming the therapeutic effect of compound 2 on psoriasis-like symptoms in mice, histological analysis was performed to identify histological changes occurring in psoriatic skin and methods of improvement.
Mice were anesthetized with pentobarbital at the end of the experiment. Blood was collected by cardiac blood sampling. Within 30 minutes of collection, serum was separated from whole blood using EDTA by centrifugation at 12,000 g for 10 minutes. The weight of the extracted spleen was measured.

Where [5] appears, read: SLE mice, 4 weeks, compound 2 5 mg/kg twice daily oral, NAC 150 mg/kg once daily i.p., versus control SLE group.
Where [6] appears, read: spleen RNA, qPCR, versus control EAE group, Fig. 6.
Setting [7] is: Masson's trichrome staining, Fig. 10.

Consider `CC(=O)N[C@@H](CS)C(=O)O` [NAC, N-acetylcysteine, reference compound], for which the “spleen index (organ weight/body weight x 100%)” value in assay [1] (setting [5]) is recorded as “no significant difference”. Besides, in assay [1] (SLE mice), the follicle diameter entry is recorded as “did not show a beneficial effect” and the “number of splenic follicles” value was “did not show a beneficial effect”. Besides, in assay [1], the anti-dsDNA titers result was “no effect”.
In the case of `O=C(O)c1cc(NCCc2ccc(C(F)(F)F)cc2)ccc1O` [compound 2, 2-hydroxy-5-[2-(4-trifluoromethyl-phenyl)-ethylamino]-benzoic acid], the “neuronal death, motor function and lifespan” value in assay [2] was “block neuronal death, lateral sclerosis, and autophagocytosis formation, as well as activate motor function and increase lifespan”. Moreover, the onset date result in the assay on EAE mouse model (EAE mice, compared with control EAE group) is “similar”. Further, the Clinical signs entry in the assay with EAE mouse model (EAE mice, compound 2 3.3 mg/kg i.p. every 24 hours for 7 days from day 9, scale 0 to 5, Fig. 4) was “effectively alleviated”. Besides, in the assay on EAE mouse model (setting [6]), the CD206 expression result is on record as “significantly increased”, the “expression of IFN-γ” value is reported as “lower”, the “expression of TNF-α” value was “lower” and the iNOS expression entry was “significantly lower”. Moreover, in the assay on EAE mouse model (splenocytes, flow cytometry, versus control EAE group, Fig. 7), the “number of Treg cells (CD4+CD25+Foxp3+)” value was “significantly higher”. Also, the mPGES-1 inhibition entry in assay [3] is on record as “inhibitor at nanomolar concentrations”. Moreover, the “epidermal thickening (acanthosis) and elongation of the rate ridges” value in assay [4] (H&E histopathology of skin lesions, versus IMQ alone, Fig. 9a) is reported as “significant inhibition”. In assay [4] (H&E-stained dorsal skin, Fig. 9b), the epidermal thickness entry was “significantly reduced”. The spleen index entry in assay [4] (IMQ-induced psoriasis mice, versus control psoriasis group, Fig. 11b) is on record as “decreased”. The “spleen size and weight” value in assay [4] (IMQ-induced psoriasis mice, Fig. 11a) is “decreased”. In assay [4] (setting [7]), the “collagen pattern in the dermis” value is reported as “much more compressed collagen pattern” and the psoriasis-like inflammation result is “potently inhibited”. Moreover, in assay [4] (psoriasis mice, compound 2 5 mg/kg twice daily oral for 6 days, versus control psoriasis group, Figs. 8b-8e), the PASI scores result is recorded as “significantly lower score than the control psoriasis group”. In addition, the spleen size result in assay [1] (SLE mice, 4 weeks, compound 2 5 mg/kg twice daily oral, NAC 150 mg/kg once daily i.p., versus control SLE group, Fig. 1a) was “smaller than that of the control SLE group”. In assay [1] (setting [5]), the “spleen index (organ weight/body weight x 100%)” value was “significantly lower than that of the control SLE group”. Further, in assay [1] (SLE mice), the follicle diameter entry was “significantly decreased” and the “number of splenic follicles” value was “significantly increased”. In assay [1], the anti-dsDNA titers entry is “significantly reduced”.
